From US20050197402A1 (priority 2004, published 2005)

Assay: Modulated differential scanning calorimetry (MDSC/DSC), thermal stability / decomposition
Format: physicochemical
Settings: for onset of decomposition: MDSC data
Source text: Differential Scanning Calorimetry (DSC) measures heat flow as a function of time or temperature and is used to study material transformation whether they be physical, such as phase changes, or chemical, such as decomposition. There are several parameters that can be obtained from a DSC thermogram. In the present work, the focus was on the onset temperature, the temperature of the peak minimum, and the peak width. DSC information is useful in understanding the purity and nature of material. For example, when a pure crystalline substance melts, the melting point is sharp. In DSC, that sharpness is shown by a narrow melting peak in the thermogram. If there are impurities or defects in the crystalline nature, the melting takes place at lower temperatures and over a larger range of temperatures. In DSC, the impurities are shown by a lower onset temperature and peak temperature, and a broader peak in the thermogram. When there are discrete impurities, they can melt at their melting points. In DSC, discrete impurities can be shown by additional peaks in the thermogram.
While a decomposition curve is usually broader and can be more complicated, some of the same phenomena are seen as with melting. Impurities and defects will cause broader and lower temperature peaks. Discrete impurities can show their own decomposition peaks.
These were made at slightly different stoichiometries. The onset temperature, the temperature at peak minimum, and the peak width are labeled.

[1] = modulated DSC thermogram, spray-dried polymorph of PMC2, K:Mg ratio less than 4.0

Molecule | onset of decomposition | DSC decomposition behaviour (in words) (spray-dried sample in a vented pan, compared to sample dried in an oven or at room temperature) | endothermic peak for decomposition: onset temperature [1] | endothermic peak for decomposition: peak minimum temperature [1] | endothermic peak for decomposition: peak width [1]
magnesium citrate [reference compound] | 250 °C | – | – | – | –
O=C([O-])CC(O)(CC(=O)[O-])C(=O)[O-].O=C([O-])CC(O)(CC(=O)[O-])C(=O)[O-].[K+].[K+].[K+].[K+].[Mg+2] [PMC, potassium magnesium citrate] | – | decomposed at a much lower temperature and with a broader decomposition peak | – | – | –
O=C([O-])CC(O)(CC(=O)[O-])C(=O)[O-].[K+].[K+].[K+] [potassium citrate, reference compound] | 260 °C | – | – | – | –
O=C([O-])CC(O)(CC(=O)[O-])C(=O)[O-].O=C([O-])CC(O)(CC(=O)[O-])C(=O)[O-].[K+].[K+].[K+].[K+].[Mg+2] [PMC2, potassium magnesium citrate] | approximately 310 °C | – | greater than 320 °C | greater than 327 °C | less than 9 °C
